Numbers after ± are expanded uncertainties.
Test: xn = mol fraction of the nth substance listed
Conditions: Fluid (supercritical or subcritical phases), vibrating tube

## CCCCCO [pentan-1-ol] + O=C=O
323.05 K, 13025 kPa, x2 = 0.0816
  mass density: 806.04 ± 0.44 kg/m3
323.05 K, 13028 kPa, x2 = 0.8067
  mass density: 814.77 ± 0.49 kg/m3
323.05 K, 14019 kPa, x2 = 0.3624
  mass density: 822.92 ± 0.44 kg/m3
323.05 K, 14021 kPa, x2 = 0.0816
  mass density: 806.82 ± 0.44 kg/m3
323.05 K, 14024 kPa, x2 = 0.8067
  mass density: 820.63 ± 0.48 kg/m3
323.05 K, 14024 kPa, x2 = 0.9757
  mass density: 722.69 ± 0.76 kg/m3
323.05 K, 14031 kPa, x2 = 0.4651
  mass density: 829.31 ± 0.45 kg/m3
323.05 K, 14965 kPa, x2 = 0.9757
  mass density: 740.5 ± 0.69 kg/m3
323.05 K, 14990 kPa, x2 = 0.4651
  mass density: 830.68 ± 0.45 kg/m3
323.05 K, 15001 kPa, x2 = 0.8067
  mass density: 825.93 ± 0.48 kg/m3
323.05 K, 15006 kPa, x2 = 0.3624
  mass density: 823.89 ± 0.45 kg/m3
323.05 K, 15017 kPa, x2 = 0.0816
  mass density: 807.57 ± 0.44 kg/m3
323.05 K, 16002 kPa, x2 = 0.3624
  mass density: 824.89 ± 0.45 kg/m3
323.05 K, 16018 kPa, x2 = 0.9757
  mass density: 757.4 ± 0.65 kg/m3
323.05 K, 16021 kPa, x2 = 0.0816
  mass density: 808.32 ± 0.45 kg/m3
323.05 K, 16027 kPa, x2 = 0.4651
  mass density: 832.14 ± 0.45 kg/m3
323.05 K, 16066 kPa, x2 = 0.8067
  mass density: 831.24 ± 0.48 kg/m3
323.05 K, 17005 kPa, x2 = 0.0816
  mass density: 809.07 ± 0.45 kg/m3
323.05 K, 17018 kPa, x2 = 0.4651
  mass density: 833.51 ± 0.45 kg/m3
323.05 K, 17021 kPa, x2 = 0.3624
  mass density: 825.87 ± 0.45 kg/m3
323.05 K, 17021 kPa, x2 = 0.8067
  mass density: 835.7 ± 0.48 kg/m3
323.05 K, 17052 kPa, x2 = 0.9757
  mass density: 771.8 ± 0.62 kg/m3
323.05 K, 17994 kPa, x2 = 0.4651
  mass density: 834.85 ± 0.45 kg/m3
323.05 K, 18001 kPa, x2 = 0.3624
  mass density: 826.81 ± 0.45 kg/m3
323.05 K, 18002 kPa, x2 = 0.8067
  mass density: 840 ± 0.47 kg/m3
323.05 K, 18028 kPa, x2 = 0.9757
  mass density: 783.78 ± 0.59 kg/m3
323.05 K, 18049 kPa, x2 = 0.0816
  mass density: 809.83 ± 0.45 kg/m3
323.05 K, 18975 kPa, x2 = 0.0816
  mass density: 810.52 ± 0.45 kg/m3
323.05 K, 19012 kPa, x2 = 0.8067
  mass density: 844.21 ± 0.47 kg/m3
323.05 K, 19034 kPa, x2 = 0.3624
  mass density: 827.81 ± 0.45 kg/m3
323.05 K, 19035 kPa, x2 = 0.9757
  mass density: 794.96 ± 0.58 kg/m3
323.05 K, 19057 kPa, x2 = 0.4651
  mass density: 836.29 ± 0.45 kg/m3
323.05 K, 19998 kPa, x2 = 0.3624
  mass density: 828.72 ± 0.45 kg/m3
323.05 K, 20002 kPa, x2 = 0.9757
  mass density: 804.8 ± 0.56 kg/m3
323.05 K, 20009 kPa, x2 = 0.4651
  mass density: 837.54 ± 0.45 kg/m3
323.05 K, 20044 kPa, x2 = 0.8067
  mass density: 848.26 ± 0.47 kg/m3
323.05 K, 20047 kPa, x2 = 0.0816
  mass density: 811.3 ± 0.45 kg/m3
323.05 K, 20997 kPa, x2 = 0.0816
  mass density: 811.98 ± 0.45 kg/m3
323.05 K, 21033 kPa, x2 = 0.3624
  mass density: 829.67 ± 0.45 kg/m3
323.05 K, 21034 kPa, x2 = 0.4651
  mass density: 838.89 ± 0.45 kg/m3
323.05 K, 21046 kPa, x2 = 0.8067
  mass density: 851.97 ± 0.47 kg/m3
323.05 K, 21049 kPa, x2 = 0.9757
  mass density: 814.6 ± 0.55 kg/m3
323.05 K, 21991 kPa, x2 = 0.0816
  mass density: 812.7 ± 0.45 kg/m3
323.05 K, 22013 kPa, x2 = 0.3624
  mass density: 830.58 ± 0.45 kg/m3
323.05 K, 22017 kPa, x2 = 0.4651
  mass density: 840.19 ± 0.45 kg/m3
323.05 K, 22017 kPa, x2 = 0.8067
  mass density: 855.5 ± 0.47 kg/m3
323.05 K, 22020 kPa, x2 = 0.9757
  mass density: 823 ± 0.54 kg/m3
323.05 K, 22767 kPa, x2 = 0.9757
  mass density: 829.12 ± 0.54 kg/m3
323.05 K, 22970 kPa, x2 = 0.8067
  mass density: 858.77 ± 0.47 kg/m3
323.05 K, 22997 kPa, x2 = 0.3624
  mass density: 831.49 ± 0.45 kg/m3
323.05 K, 23022 kPa, x2 = 0.4651
  mass density: 841.47 ± 0.45 kg/m3
323.05 K, 23054 kPa, x2 = 0.0816
  mass density: 813.46 ± 0.45 kg/m3
323.05 K, 23901 kPa, x2 = 0.4651
  mass density: 842.61 ± 0.45 kg/m3
323.05 K, 23987 kPa, x2 = 0.0816
  mass density: 814.12 ± 0.45 kg/m3
323.05 K, 24062 kPa, x2 = 0.3624
  mass density: 832.47 ± 0.45 kg/m3
323.05 K, 24707 kPa, x2 = 0.3624
  mass density: 833.04 ± 0.45 kg/m3
323.05 K, 25014 kPa, x2 = 0.0816
  mass density: 814.87 ± 0.45 kg/m3
323.06 K, 11010 kPa, x2 = 0.8573
  mass density: 775.4 ± 0.58 kg/m3
323.06 K, 11028 kPa, x2 = 0.9216
  mass density: 732.55 ± 1 kg/m3
323.06 K, 12011 kPa, x2 = 0.9216
  mass density: 751.44 ± 0.68 kg/m3
323.06 K, 12019 kPa, x2 = 0.8573
  mass density: 787.14 ± 0.54 kg/m3
323.06 K, 13011 kPa, x2 = 0.8573
  mass density: 796.54 ± 0.52 kg/m3
